Assay [1] concerns pp28-luciferase Towne CMV strain. The assay is described as follows: Drug combination with GCV (Bliss model). The assay is classed as cell-based, human cytomegalovirus. Particulars: FIGS. 4D and E. The method, then:
Drug combinations were performed as previously reported (33). Briefly, 2×10^6 HFFs were seeded in a 96-well plate and infected with the pp28-luciferase Towne CMV strain at MOI=1. First, a dose response curve was generated for each drug individually to determine its EC50. […] Luciferase activity of the combination and each drug individually was quantified at 72 hpi. The Bliss model was used to calculate the effect of each drug combination on pp28-luciferase activity. In this model, drug combination represents the product of two probabilistically independent events as described in the following equation (23):
[formula] Where D is the drug concentration, m is the slope, and EC50 is the effective concentration resulting in 50% virus inhibition. The combined effect of two inhibitors (FU, fractional unaffected) is computed as the product of individual effects of the two inhibitors, FU1 and FU2. If the ratio of observed fold inhibition divided by the expected fold inhibition is greater than 1, the compounds are synergistic. If the ratio is less than 1, the combination is considered antagonistic, and if it equals to 1 the combination is additive.

A further assay relates to HCMV TB40 strain. Put plainly: Plaque reduction assay in HFFs. In kind it is cell-based, human cytomegalovirus. Particulars: Human betaherpesvirus 5, read-out: EC50 in plaque reduction assay. As for the experimental part: (§1) Six ozonizes have been tested for inhibition of HCMV replication and toxicity in human foreskin fibroblasts (Table 1, FIG. 1). The pp28 luciferase-recombinant Towne was used to measure HCMV replication, and an MTT assay—for cell viability. […] (FIG. 1).
(§2) The pp28-luciferase Towne CMV strain was constructed as previously described (31). The recombinant virus expresses luciferase under the control of UL99 (pp28) late promoter 48-72 h post infection (hpi). […] Luciferase activity highly correlates with plaque reduction assay. The Towne CMV (ATCC VR-977) and TB40 strains (ATCC VR-1578) were used for plaque reduction, DNA replication, and cell cycle assays.
A plaque reduction assay was performed in HFFs. One day prior to infection, HFFs were seeded at 3×10^6 cells/24-well plate. The Towne CMV strain was diluted in DMEM to a desired titer which gave approximately 50 plaques/well and added to each well in quadruplicates. Plates were incubated for 90 minutes with shaking every 10 min; thereafter compounds were added and replenished every 3 days. After a 10-day incubation, cells were stained with crystal violet and plaques were counted at 40× magnification.
In general terms: In a plaque reduction assay, fewer plaques than in the control indicate reduced infectivity or spread.

Another assay concerns non-infected HFFs. The assay is described as follows: Cell cycle progression by flow cytometry, non-infected HFFs. In kind it is cell-based, human. To be noted: non-infected cells, 30 μM, 24 h and 72 h. The method, then:
(§3) To identify the cell cycle stage affected by OZ418, non-infected HFFs were serum starved for 72 h and then released in DMEM with 0% FBS (control for G0 arrest), 10% FBS (control for cell cycle progression), or 10% FBS plus OZ418 (30 μM), AS (30 μM), or GCV (30 μM) for 24 h and 72 h, respectively. To determine the effects of OZ418 on cell cycle progression in infected HFFs, 1.0×10^6 cells were serum starved for 72 h, and then infected with HCMV Towne strain (MOI=1) followed by treatment with OZ418 (30 μM), AS (30 μM), or GCV (5 μM) for 24 h and 72 h, respectively. The cells were collected by treatment with trypsin and then washed with PBS. The collected cells were fixed in 5 ml of cold 70% ethanol overnight at 4° C. and resuspended in […] of staining buffer (50 μg/ml propidium iodide [Sigma-Aldrich] and 0.2 mg/ml RNase A in PBS) for 45 min at 37° C. in 5% CO2. The samples were analyzed on an LSR II flow cytometer (BD Biosciences, San Jose, Calif.), and at least 10,000 cells were counted for each sample. Data analysis was performed using FlowJo software (Tree Star, USA). The percentage of cells in G1/S/G2-M is shown in each condition.
A general note: In flow cytometry, cells or beads pass a laser one at a time.

Assay [2] concerns pp28 luciferase-recombinant Towne HCMV. Put plainly: pp28-luciferase Towne HCMV replication assay in HFFs. The assay is classed as cell-based, human cytomegalovirus. As for the experimental part: as §1, §2
HFFs passage 12-16 (ATCC, CRL-2088) were grown in Dulbecco's Modified Eagle Medium (DMEM) containing 10% fetal bovine serum (FBS) (Gibco, Carlsbad, Calif.) in a 5% CO2 incubator at 37° C. and used for infection with pp28-luciferase Towne CMV. HCT116 (Human Colorectal Carcinoma) (ATCC, CCL-247) cells were maintained in DMEM containing 10% fetal bovine serum.
To determine the effect of cell density/cycling on the anti-HCMV activity of ozonides, HFFs were plated at 0.5×10^6, 1×10^6, 2×10^6 or 3×10^6 cells/96 well-plate 24 h prior to infection. Infection was carried out at multiplicity of infection of 1 PFU/cell (MOI=1). Following 90 minute adsorption, media containing virus was removed and replaced by DMEM with 4% FBS (Gibco) containing anti-viral compounds. Infected treated HFFs were collected at 72 hpi and pp28 activity was quantified by a Luciferase Assay Kit (Promega, Madison, Wis.) on GloMaxH-Multi+ Detection System (Promega) according to manufacturer's instructions.

For a further assay, the system named is HCMV-infected HFFs. Put plainly: Cell cycle progression by flow cytometry, HCMV-infected HFFs. The assay is classed as cell-based, human. Particulars: HCMV-infected cells, 30 μM, 24 h and 72 h. As for the experimental part:
as §3

Each structure is given as a SMILES string.

A word on the EC50: it is the concentration that produces a half-maximal response. For `O=C(O)COc1ccc([C@H]2CC[C@]3(CC2)OO[C@]2(O3)C3CC4CC(C3)CC2C4)cc1` [OZ418], the “Combination effect with GCV against HCMV” value in assay [1] is “synergistic activity with GCV”. The EC50 came to 8.53 ± 0.09 µM in the assay with HCMV TB40 strain and 9.8 ± 0.25 µM in assay [2] (Human betaherpesvirus 5). For the same molecule, the Cell cycle progression entry in the assay on non-infected HFFs is given as “did not influence cell cycle progression”; with HCMV-infected HFFs it was “delayed cell cycle progression”. Moreover, the “Selectivity index (SI)” value in assay [2] (CC50/EC50) is recorded as 13.06 ± 0.48.

For the origin of these results see patent US11246854B2, “Ozonides for treating or preventing virus infections” (THE JOHNS HOPKINS UNIVERSITY, priority 2017, dated 2022).
